Patent US8492589B2, “Alkynyl phenyl derivative compounds for treating ophthalmic diseases and disorders” (Acucela Inc., priority 2007, dated 2013)

Each compound was assayed against T1, visual cycle isomerase (Bovine RPE microsome membranes) (Bos taurus, UniProt Q28175) (assay: In vitro isomerase inhibition assay, bovine RPE microsome membranes). Details: bovine RPE microsomes; 11-cis retinol formation.
T1 construct: Bovine Retinal Pigment Epithelium (RPE) microsome membranes were the source of a visual cycle isomerase; from tissue; host or cells: bovine retinal pigment epithelium microsome membranes
T1 sequence (Q28175 2-533 limits assumed): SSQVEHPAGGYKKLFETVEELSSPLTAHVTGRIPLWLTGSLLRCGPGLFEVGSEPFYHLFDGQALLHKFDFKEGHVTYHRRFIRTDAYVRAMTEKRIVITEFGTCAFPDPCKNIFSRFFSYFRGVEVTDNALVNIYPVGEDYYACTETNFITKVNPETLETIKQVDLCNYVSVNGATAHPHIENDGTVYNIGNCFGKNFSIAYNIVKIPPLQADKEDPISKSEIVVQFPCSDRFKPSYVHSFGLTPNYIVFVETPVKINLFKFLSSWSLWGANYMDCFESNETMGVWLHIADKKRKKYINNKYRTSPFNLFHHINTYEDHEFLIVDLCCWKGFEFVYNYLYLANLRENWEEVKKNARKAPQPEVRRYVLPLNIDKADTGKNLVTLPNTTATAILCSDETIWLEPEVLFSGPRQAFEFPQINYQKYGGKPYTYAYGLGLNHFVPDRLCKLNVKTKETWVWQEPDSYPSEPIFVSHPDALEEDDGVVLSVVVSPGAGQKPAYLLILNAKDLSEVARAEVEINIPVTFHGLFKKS
Type: biochemical
Description: The capability of alkynyl phenyl-linked amine derivative compounds to inhibit the activity of a visual cycle isomerase was determined.
Bovine Retinal Pigment Epithelium (RPE) microsome membranes were the source of a visual cycle isomerase.
Crude RPE microsome extracts were thawed in a 37° C. water bath, and then immediately placed on ice. 50 ml crude RPE microsomes were placed into a 50 ml Teflon-glass homogenizer (Fisher Scientific, catalog no. 0841416M) on ice, powered by a hand-held DeWalt drill, and homogenized ten times up and down on ice under maximum speed. This process was repeated until the crude RPE microsome solution was homogenized. The homogenate was then subjected to centrifugation (50.2 Ti rotor (Beckman, Fullerton, Calif.), 13,000 RPM; 15360 Rcf) for 15 minutes at 4° C. The supernatant was collected and subjected to centrifugation at 42,000 RPM (160,000 Rcf; 50.2 Ti rotor) for 1 hour at 4° C. The supernatant was removed, and the pellets were suspended in 12 ml (final volume) cold 10 mM MOPS buffer, pH 7.0. The resuspended RPE membranes in 5 ml aliquots were homogenized in a glass-to-glass homogenizer (Fisher Scientific, catalog no. K885500-0021) to high homogeneity. Protein concentration was quantified using the BCA protein assay according to the manufacturer's protocol (Pierce, Rockford, Ill.). The homogenized RPE preparations were stored at −80° C.
Recombinant human apo cellular retinaldehyde-binding protein (CRALBP) was cloned and expressed according to standard methods in the molecular biology art (see Crabb et al., Protein Science 7:746-57 (1998); Crabb et al., J. Biol. Chem. 263:18688-92 (1988)). Briefly, total RNA was prepared from confluent ARPE19 cells (American Type Culture Collection, Manassas, Va.), cDNA was synthesized using an oligo(dT)12-18 primer, and then DNA encoding CRALBP was amplified by two sequential polymerase chain reactions (see Crabb et al., J. Biol. Chem. 263:18688-92 (1988); Intres, et al., J. Biol. Chem. 269:25411-18 (1994); GenBank Accession No. L34219.1). The PCR product was sub-cloned into pTrcHis2-TOPO TA vector according to the manufacturer's protocol (Invitrogen Inc., Carlsbad, Calif.; catalog no. K4400-01), and then the sequence was confirmed according to standard nucleotide sequencing techniques. Recombinant 6×His-tagged human CRALBP was expressed in One Shot TOP 10 chemically competent E. coli cells (Invitrogen), and the recombinant polypeptide was isolated from E. coli cell lysates by nickel affinity chromatography using nickel (Ni) Sepharose XK16-20 columns for HPLC (Amersham Bioscience, Pittsburgh, Pa.; catalog no. 17-5268-02). The purified 6×His-tagged human CRALBP was dialyzed against 10 mM bis-tris-Propane (BTP) and analyzed by SDS-PAGE. The molecular weight of the recombinant human CRALBP was approximately 39 kDal.
Alkkynyl phenyl-linked amine derivative compounds and control compounds were reconstituted in ethanol to 0.1 M. Ten-fold serial dilutions (10^−2, 10^−3, 10^−4, 10^−5, 10^−6 M) in ethanol of each compound were prepared for analysis in the isomerase assay.
The isomerase assay was performed in 10 mM bis-tris-propane (BTP) buffer, pH 7.5, 0.5% BSA (diluted in BTP buffer), 1 mM sodium pyrophosphate, 20 μM all-trans retinol (in ethanol), and 6 μM apo-CRALBP. The test compounds (2 μl) (final […] dilution of serial dilution stocks) were added to the above reaction mixture to which RPE microsomes were added. The same volume of ethanol was added to the control reaction (absence of test compound). Bovine RPE microsomes (9 μl) (see above) were then added, and the mixtures transferred to 37° C. to initiate the reaction (total volume=150 μl). The reactions were stopped after 30 minutes by adding methanol (300 μl). Heptane was added (300 μl) and mixed into the reaction mixture by pipetting. Retinoid was extracted by agitating the reaction mixtures, followed by centrifugation in a microcentrifuge. […]

IC50	Compound
≤ 1 µM	CCCCC(O)(C#Cc1cccc(CCCN)c1)CCCC [Example 3, 5-((3-(3-Aminopropyl)phenyl)ethynyl)nonan-5-ol]
≤ 1 µM	CCCC(C)(O)C#Cc1cccc(CCCN)c1 (centres unmarked) [Example 5, 1-(3-(3-Aminopropyl)phenyl)-3-methylhex-1-yn-3-ol]
≤ 1 µM	CC(C)CC(C)(O)C#Cc1cccc(CCCN)c1 (centres unmarked) [Example 6, 1-(3-(3-Aminopropyl)phenyl)-3,5-dimethylhex-1-yn-3-ol]
≤ 10 µM	COCC#Cc1cccc(CCCN)c1 [Example 9, 3-(3-(3-Methoxyprop-1-ynyl)phenyl)propan-1-amine]
≤ 100 µM	NCCCc1cccc(C#CCO)c1 [Example 10, 3-(3-(3-Aminopropyl)phenyl)prop-2-yn-1-ol]
≤ 10 µM	CC(C)(C)C(O)(C#Cc1cccc(CCCN)c1)C(C)(C)C [Example 12, 1-(3-(3-Aminopropyl)phenyl)-3-tert-butyl-4,4-dimethylpent-1-yn-3-ol]
≤ 10 µM	CC1(C)CCCC(C)(C)C1(O)C#Cc1cccc(CCCN)c1 [Example 13, 1-((3-(3-Aminopropyl)phenyl)ethynyl)-2,2,6,6-tetramethylcyclohexanol]
≤ 10 µM	CCCCC[C@H](O)C#Cc1cccc(CCCN)c1 [Example 14, (S)-1-(3-(3-Aminopropyl)phenyl)oct-1-yn-3-ol]
≤ 1 µM	CCCCC[C@@H](O)C#Cc1cccc(CCCN)c1 [Example 15, (R)-1-(3-(3-Aminopropyl)phenyl)oct-1-yn-3-ol]
≤ 1 µM	NCCCc1cccc(C#C[C@H](O)c2ccccc2)c1 [Example 16, (R)-3-(3-(3-Aminopropyl)phenyl)-1-phenylprop-2-ynol]
≤ 10 µM	Cc1cccc(C)c1C#Cc1cccc(CCCN)c1 [Example 17, 3-(3-((2,6-dimethylphenyl)ethynyl)phenyl)propan-1-amine]
≤ 100 µM	CCCC(O)(C#Cc1cccc(CC(C)(C)CN)c1)CCC [Example 20, 4-((3-(3-Amino-2,2-dimethylpropyl)phenyl)ethynyl)heptan-4-ol]
≤ 1 µM	CC(C)C(C)(O)C#Cc1cccc(CCCN)c1 (centres unmarked) [Example 21, 1-(3-(3-Aminopropyl)phenyl)-3,4-dimethylpent-1-yn-3-ol]
≤ 1 µM	CC(O)(C#Cc1cccc(CCCN)c1)c1ccccc1 (centres unmarked) [Example 22, 4-(3-(3-Aminopropyl)Phenyl)-2-Phenylbut-3-Yn-2-ol]
≤ 1 µM	CC(C)C(O)C#Cc1cccc(CCCN)c1 (centres unmarked) [Example 23, 1-(3-(3-Aminopropyl)phenyl)-4-methylpent-1-yn-3-ol]
≤ 1 µM	CCCCC(O)(C#Cc1cccc(OCCN)c1)CCCC [Example 29, 5-((3-(2-Aminoethoxy)phenyl)ethynyl)nonan-5-ol]
≤ 1 µM	CC(C)(O)C#Cc1cccc(OCCN)c1 [Example 30, 4-(3-(2-Aminoethoxy)phenyl)-2-methylbut-3-yn-2-ol]
≤ 10 µM	CC(C)CC(O)(C#Cc1cccc(CCCN)c1)CC(C)C [Example 33, 4-((3-(3-Aminopropyl)phenyl)ethynyl)-2,6-dimethylheptan-4-ol]
≤ 100 µM	NCCCc1cccc(C#CCCO)c1 [Example 34, 4-(3-(3-Aminopropyl)Phenyl)But-3-Yn-1-ol]
≤ 10 µM	CC(O)CC#Cc1cccc(CCCN)c1 (centres unmarked) [Example 35, 5-(3-(3-Aminopropyl)phenyl)pent-4-yn-2-ol]
≤ 1 µM	NCCCc1cccc(C#CCC2CCCC2)c1 [Example 39, 3-(3-(3-Cyclopentylprop-1-ynyl)phenyl)propan-1-amine]

IC50	Compound
≤ 10 µM	CC(C)(C)C#Cc1cccc(CCCN)c1 [Example 40, 3-(3-(3,3-Dimethylbut-1-Ynyl)Phenyl)Propan-1-Amine]
≤ 1 µM	NCCCc1cccc(C#CC2CCCCC2)c1 [Example 41, 3-(3-(Cyclohexylethynyl)phenyl)propan-1-amine]
≤ 1 µM	NCCCc1cccc(C#CCc2ccccc2)c1 [Example 42, 3-(3-(3-Phenylprop-1-ynyl)phenyl)propan-1-amine]
≤ 1 µM	CCCC#Cc1cccc(CCCN)c1 [Example 43, 3-(3-(Pent-1-ynyl)phenyl)propan-1-amine]
≤ 1 µM	CCCCC#Cc1cccc(CCCN)c1 [Example 44, 3-(3-(Hex-1-ynyl)phenyl)propan-1-amine]
≤ 1000 µM	NCCCc1cccc(C#Cc2ccc3ccccc3c2)c1 [Example 45, 3-(3-(Naphthalen-2-ylethynyl)phenyl)propan-1-amine]
≤ 100 µM	NCCCc1cccc(C#Cc2cccc(-c3ccccc3)c2)c1 [Example 46, 3-(3-(Biphenyl-3-ylethynyl)phenyl)propan-1-amine]
≤ 1 µM	NCCC(O)c1cccc(C#CCC2CCCC2)c1 (centres unmarked) [Example 48, 3-Amino-1-(3-(3-cyclopentylprop-1-ynyl)phenyl)propan-1-ol]
≤ 1 µM	NCCC(O)c1cccc(C#CCc2ccccc2)c1 (centres unmarked) [Example 49, 3-Amino-1-(3-(3-phenylprop-1-ynyl)phenyl)propan-1-ol]
≤ 1 µM	CCCCCC#Cc1cccc(C(O)CCN)c1 (centres unmarked) [Example 53, 3-Amino-1-(3-(hept-1-ynyl)phenyl)propan-1-ol]
≤ 10 µM	NCCOc1cccc(C#CC2(O)CCOCC2)c1 [Example 56, 4-((3-(2-Aminoethoxy)phenyl)ethynyl)tetrahydro-2H-pyran-4-ol]
≤ 1 µM	NCCCc1cccc(C#CC2(O)CCCCCC2)c1 [Example 58, 1-((3-(3-Aminopropyl)phenyl)ethynyl)cycloheptanol]
≤ 10 µM	NCCCc1cccc(C#Cc2cccnc2)c1 [Example 64, 3-(3-(Pyridin-3-ylethynyl)phenyl)propan-1-amine]
≤ 10 µM	NCCCc1cccc(C#Cc2cccs2)c1 [Example 65, 3-(3-(Thiophen-2-ylethynyl)phenyl)propan-1-amine]
≤ 10 µM	NCCCc1cccc(C#Cc2ccsc2)c1 [Example 66, 3-(3-(Thiophen-3-ylethynyl)phenyl)propan-1-amine]
≤ 1 µM	COCCCCC#Cc1cccc(CCCN)c1 [Example 67, 3-(3-(6-Methoxyhex-1-ynyl)phenyl)propan-1-amine]
≤ 1 µM	NCCCc1cccc(C#CCCCCO)c1 [Example 68, 6-(3-(3-Aminopropyl)phenyl)hex-5-yn-1-ol]
≤ 1 µM	COCCCC#Cc1cccc(CCCN)c1 [Example 70, 3-(3-(5-Methoxypent-1-ynyl)phenyl)propan-1-amine]
≤ 1 µM	NCCCc1cccc(C#CCCc2ccccc2)c1 [Example 72, 3-(3-(4-Phenylbut-1-ynyl)phenyl)propan-1-amine]
≤ 1 µM	CC(C)CC#Cc1cccc(OCCN)c1 [Example 73, 2-(3-(4-Methylpent-1-ynyl)phenoxy)ethanamine]
